Assay results: ChEMBL document CHEMBL1201862, “PubChem BioAssay data set” (2004)
Activity calls are given as the source filed them.

Tested on: not listed separately
Experiment: viability of HCT116 lacking mutant beta-catenin – cell-based, human colon tumor, dose response (AID 1045);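 further: HCT116 colon tumor cells with beta catenin knocked out; cells exposed to compound for 60 hours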
Type: functional
Conditions: not given

SMILES	EC50
CCOC(=O)c1cn(-c2nc(-c3ccc(Cl)c(Cl)c3)cs2)c2c(F)c(N3CCOCC3)c(F)cc2c1=O	18.6 µM (active)
COCCn1/c(=N/C(=O)c2sc3ccccc3c2Cl)sc2cc(S(N)(=O)=O)ccc21	22.5 µM (active)
Cc1ccc2nc(N(CCCN(C)C)C(=O)CCc3ccccc3)sc2c1	16.6 µM (active)
CCOc1ccc(-n2c(SCC(=O)Nc3cc(C)on3)nc3c4ccccc4nc-3c2O)cc1	28.6 µM (active)
COc1ccc2nc(SCC(=O)Nc3ccc4sc(C)nc4c3)c(C#N)cc2c1	20 µM (active)
CCN(CC(=O)Nc1c(C(=O)OC)[nH]c2ccc(Cl)cc12)c1ccc2c(c1)OCO2	27.7 µM (active)
Cc1ccc(OCCN2CCN(CC(O)Cn3c4ccccc4c4ccccc43)CC2)cc1 (configuration not stated)	10.9 µM (active)

Tested on: not listed separately
Experiment: viability of uninfected HEp-2 cells – cell-based, HTS, cytotoxicity control for RSV inhibitor project, dose response (AID 2410)
Type: functional
Conditions: human respiratory syncytial virus

SMILES	CC50
CCOC(=O)c1cn(-c2nc(-c3ccc(Cl)c(Cl)c3)cs2)c2c(F)c(N3CCOCC3)c(F)cc2c1=O	28.4 µM (active)
CCCCN1CCc2c1nc1ccc(Br)cc1c2N	14.1 µM (active)
Cn1c(/C=C/c2cccc([N+](=O)[O-])c2)c([N+](=O)[O-])c(=O)n(C)c1=O	36 µM (active)

Biological target: T1, Calpain-2 catalytic subunit (Sus scrofa, UniProt P43367)
T1 sequence (P43367 whole entry): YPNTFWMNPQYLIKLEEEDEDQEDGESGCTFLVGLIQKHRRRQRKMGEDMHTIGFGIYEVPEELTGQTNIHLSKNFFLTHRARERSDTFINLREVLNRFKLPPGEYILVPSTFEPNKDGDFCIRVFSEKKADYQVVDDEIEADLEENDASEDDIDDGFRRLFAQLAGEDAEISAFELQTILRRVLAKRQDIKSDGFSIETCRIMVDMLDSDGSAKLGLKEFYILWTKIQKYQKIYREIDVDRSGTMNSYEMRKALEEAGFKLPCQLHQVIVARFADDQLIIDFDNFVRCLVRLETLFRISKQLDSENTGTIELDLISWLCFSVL
Experiment: m-calpain protease blockers, concentration series – biochemical, fluorogenic peptide substrate, dose response (AID 1420)
Type: functional
Conditions: not given

SMILES	IC50
Cc1ccc(CNC(=O)c2oc3ccc(S(=O)(=O)N4CCOCC4)cc3c2C)cc1	23.5 µM (not active)

Tested on: not listed separately
Experiment: NIH3T3 cell viability loss – ATP luminescence, mouse fibroblasts, counter-screen, dose response (AID 2010);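 further: cells exposed to compound for about 90 hours before reading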
Type: functional, cell-based
Conditions: not given

SMILES	EC50
COc1cccc2s/c(=N/C(=O)CS(=O)(=O)c3ccc(Cl)cc3)n(C)c12	> 60 µM (not active)

Tested on: Vero
Experiment: cells
Type: functional
Conditions: Chlorocebus sabaeus

SMILES	CC50
Cn1c(/C=C/c2cccc([N+](=O)[O-])c2)c([N+](=O)[O-])c(=O)n(C)c1=O	22.7 µM (active)
O=C(NCc1ccco1)/C(=C/c1cccc(C(F)(F)F)c1)c1nc2ccccc2[nH]1	13.7 µM (active)
Cc1c(O)cccc1C(=O)N[C@@H](CSc1ccccc1)[C@H](O)CN1C[C@H]2CCCC[C@H]2C[C@H]1C(=O)NC(C)(C)C	> 25 µM (active)
CC(C)CC(=O)NC(=S)NNC(=O)c1ccc([N+](=O)[O-])cc1	24.6 µM (active)

Tested on: not listed separately
Experiment: HIV-1 AD8 envelope cell-cell fusion blockers – cherry-pick, dose response (AID 652062);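 further: luciferase signal from cell-cell fusion driven by HIV-1 clade B AD8 Env; potency is for inhibitors of fusion seen as a drop in luminescence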
Type: functional, cell-based
Conditions: not given

SMILES	AC50
Cn1c(CN2CCCCC2)nc2cc(NC(=O)c3ccc(Cl)cc3)ccc21	28.7 µM (active)

Tested on: not listed separately
Experiment: Trypanosoma cruzi growth suppression in host cells – NIH3T3 host cells, beta-gal luminescence, confirmation (AID 2044);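 further: intracellular parasites grown in NIH/3T3 mouse fibroblasts as host cells; luminescent beta-galactosidase reporter signal from transgenic T. cruzi replicating inside host cells; inhibitors lower the luminescence signal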
Type: functional, cell-based
Conditions: not given

SMILES	EC50
COc1cccc2s/c(=N/C(=O)CS(=O)(=O)c3ccc(Cl)cc3)n(C)c12	0.34 µM (active)

Tested on: not listed separately
Experiment: viability of PTEN-deleted HCT116 cells – cell-based, HCT116 PTEN knockout, dose response (AID 1047);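 further: HCT116 colon tumor cells with PTEN knocked out; cells exposed to compound for 60 hours before readout; potency for loss of cell viability measured by luminescence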
Type: functional
Conditions: not given

SMILES	EC50
CCOC(=O)c1cn(-c2nc(-c3ccc(Cl)c(Cl)c3)cs2)c2c(F)c(N3CCOCC3)c(F)cc2c1=O	8.96 µM (active)
COCCn1/c(=N/C(=O)c2sc3ccccc3c2Cl)sc2cc(S(N)(=O)=O)ccc21	23.2 µM (active)
Cc1ccc2nc(N(CCCN(C)C)C(=O)CCc3ccccc3)sc2c1	16.6 µM (active)
CCOc1ccc(-n2c(SCC(=O)Nc3cc(C)on3)nc3c4ccccc4nc-3c2O)cc1	28.4 µM (active)
COc1ccc2nc(SCC(=O)Nc3ccc4sc(C)nc4c3)c(C#N)cc2c1	21.3 µM (active)
CCN(CC(=O)Nc1c(C(=O)OC)[nH]c2ccc(Cl)cc12)c1ccc2c(c1)OCO2	19.4 µM (active)
Cc1ccc(OCCN2CCN(CC(O)Cn3c4ccccc4c4ccccc43)CC2)cc1 (configuration not stated)	13.6 µM (active)

Tested on: not listed separately
Experiment: blockers of HIV-1 envelope-mediated cell-cell fusion – cherry-pick, dose response (AID 652057)
Type: functional, cell-based
Conditions: not given

SMILES	AC50
CC(NC(=O)c1ccccc1NC(=O)CN1CCc2ccccc2C1)c1ccccc1 (configuration not stated)	9.12 µM (active)

Tested on: not listed separately
Experiment: NIH-3T3 fibroblast cytotoxicity, dose response, cytotoxicity control, cell-based, fluorescence, Alamar Blue, secondary assay (AID 2327);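 further: NIH-3T3 mouse fibroblasts cultured with fluconazole at 8 µg/mL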
Type: functional
Conditions: not given

SMILES	EC50
COc1cccc2s/c(=N/C(=O)CS(=O)(=O)c3ccc(Cl)cc3)n(C)c12	> 160 µM (inactive)
Cn1c(/C=C/c2cccc([N+](=O)[O-])c2)c([N+](=O)[O-])c(=O)n(C)c1=O	58.4 µM (active)

Biological target: T2, Microphthalmia-associated transcription factor (Homo sapiens, UniProt O75030)
T2 sequence (O75030 whole entry): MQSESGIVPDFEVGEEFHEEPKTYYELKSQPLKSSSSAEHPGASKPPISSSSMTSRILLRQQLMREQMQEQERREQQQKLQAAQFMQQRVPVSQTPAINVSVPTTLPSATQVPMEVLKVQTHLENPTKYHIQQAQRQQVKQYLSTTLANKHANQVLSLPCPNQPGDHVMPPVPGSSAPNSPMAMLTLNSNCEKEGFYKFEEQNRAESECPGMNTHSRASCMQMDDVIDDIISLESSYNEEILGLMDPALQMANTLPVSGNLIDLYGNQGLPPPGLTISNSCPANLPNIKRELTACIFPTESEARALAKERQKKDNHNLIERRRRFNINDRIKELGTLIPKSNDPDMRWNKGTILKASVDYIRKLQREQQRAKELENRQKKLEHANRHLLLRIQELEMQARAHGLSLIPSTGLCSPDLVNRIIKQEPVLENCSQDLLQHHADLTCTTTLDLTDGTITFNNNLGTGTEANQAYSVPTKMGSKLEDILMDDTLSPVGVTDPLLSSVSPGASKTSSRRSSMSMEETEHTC
Experiment: reducers of TRPM1 reporter luminescence, concentration series – cell-based, SK-MEL-5, cherry-picked, set 3, MITF inhibitor project, dose response (AID 493073);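 further: SK-MEL-5 melanoma cells with luciferase driven by the MITF target TRPM1 promoter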
Type: functional
Conditions: not given

SMILES	AC50
CCCCN1CCc2c1nc1ccc(Br)cc1c2N	12.2 µM (active)
Cn1c(/C=C/c2cccc([N+](=O)[O-])c2)c([N+](=O)[O-])c(=O)n(C)c1=O	27.8 µM (active)

Biological target: Cytochrome P450 2D6 (Homo sapiens, UniProt P10635);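 further: CYP2D6 member of a cytochrome P450 panel assay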
Experiment: not given
Conditions: not given

Sequence of Cytochrome P450 2D6 (P10635 whole entry): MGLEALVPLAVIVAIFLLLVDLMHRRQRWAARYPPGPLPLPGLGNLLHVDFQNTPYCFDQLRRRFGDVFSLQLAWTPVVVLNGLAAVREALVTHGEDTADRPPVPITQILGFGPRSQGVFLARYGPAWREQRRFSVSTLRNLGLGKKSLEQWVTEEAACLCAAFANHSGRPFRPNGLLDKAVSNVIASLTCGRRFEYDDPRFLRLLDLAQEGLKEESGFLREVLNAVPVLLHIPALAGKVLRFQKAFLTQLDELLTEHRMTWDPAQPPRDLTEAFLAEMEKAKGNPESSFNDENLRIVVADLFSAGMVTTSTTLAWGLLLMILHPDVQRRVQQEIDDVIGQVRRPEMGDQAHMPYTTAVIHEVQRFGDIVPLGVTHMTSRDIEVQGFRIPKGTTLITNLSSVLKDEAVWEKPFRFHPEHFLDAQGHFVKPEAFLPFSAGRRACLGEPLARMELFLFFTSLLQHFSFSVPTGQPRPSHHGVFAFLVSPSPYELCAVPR

SMILES	AC50
Cn1c(CN2CCCCC2)nc2cc(NC(=O)c3ccc(Cl)cc3)ccc21	0.0316 µM (inconclusive)

Tested on: not listed separately
Experiment: fluconazole-exposed Candida albicans growth modulators – fluorescence, retest, confirmation (AID 2467)
Type: functional, cell-based
Conditions: not given

SMILES	EC50
COc1cccc2s/c(=N/C(=O)CS(=O)(=O)c3ccc(Cl)cc3)n(C)c12	2.16 µM (active)
Cn1c(/C=C/c2cccc([N+](=O)[O-])c2)c([N+](=O)[O-])c(=O)n(C)c1=O	7.56 µM (active)

Tested on: not listed separately
Experiment: off-target signal loss in HeLa-CEM21 co-culture – HeLa F-luc CTL cells, cherry-picked, counter-screen for HIV-1 Env fusion inhibitor project, dose response (AID 652040);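 further: potency for signal decrease marking cytotoxic or nonspecific inhibition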
Type: functional, cell-based
Conditions: not given

SMILES	AC50
CC(NC(=O)c1ccccc1NC(=O)CN1CCc2ccccc2C1)c1ccccc1 (configuration not stated)	49.2 µM (active)

Biological target: T3, Replicative DNA helicase DnaB (Mycobacterium tuberculosis, UniProt P9WMR3)
T3 sequence (P9WMR3 whole entry): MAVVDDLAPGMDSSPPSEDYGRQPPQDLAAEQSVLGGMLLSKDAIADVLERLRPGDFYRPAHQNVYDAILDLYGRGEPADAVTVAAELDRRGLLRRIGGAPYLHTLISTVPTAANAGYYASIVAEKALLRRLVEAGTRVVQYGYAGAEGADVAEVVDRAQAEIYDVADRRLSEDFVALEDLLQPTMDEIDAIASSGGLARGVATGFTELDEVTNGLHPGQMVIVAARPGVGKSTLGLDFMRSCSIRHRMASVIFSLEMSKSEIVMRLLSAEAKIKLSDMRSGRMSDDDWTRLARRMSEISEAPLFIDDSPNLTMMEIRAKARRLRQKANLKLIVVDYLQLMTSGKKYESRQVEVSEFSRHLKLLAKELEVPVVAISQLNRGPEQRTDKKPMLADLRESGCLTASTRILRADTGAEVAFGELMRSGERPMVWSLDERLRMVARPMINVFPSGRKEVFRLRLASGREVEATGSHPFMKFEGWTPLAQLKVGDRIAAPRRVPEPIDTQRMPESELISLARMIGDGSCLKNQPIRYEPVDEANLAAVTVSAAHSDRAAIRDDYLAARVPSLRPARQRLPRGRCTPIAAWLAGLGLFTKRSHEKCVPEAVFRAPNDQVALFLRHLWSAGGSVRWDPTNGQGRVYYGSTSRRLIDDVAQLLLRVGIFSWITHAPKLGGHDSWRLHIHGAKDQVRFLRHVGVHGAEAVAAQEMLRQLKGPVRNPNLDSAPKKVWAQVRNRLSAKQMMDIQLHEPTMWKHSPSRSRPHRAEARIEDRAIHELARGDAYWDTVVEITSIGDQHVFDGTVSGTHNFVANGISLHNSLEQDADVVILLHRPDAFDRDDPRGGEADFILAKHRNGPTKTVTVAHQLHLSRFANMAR
Experiment: DnaB intein splicing inhibitors, dose response, biochemical, cell-free fluorescence (AID 449749)
Type: functional
Conditions: not given

SMILES	AC50
O=C(NCc1ccco1)/C(=C/c1cccc(C(F)(F)F)c1)c1nc2ccccc2[nH]1	> 380 µM (inactive)

Tested on: H9c2;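 further: confirmatory concentration-response retest of ultra-high-throughput screening hits for modulation of myocardial damage; cell death induced by hydrogen peroxide oxidative stress; compound pretreatment for 60 min then peroxide exposure for 2 h; potency is for protecting the cells against peroxide damage rather than for killing them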
Experiment: cells
Type: functional, cell-based
Conditions: Rattus norvegicus, H9c2, Myocardium

SMILES	IC50
Cc1ccc(CNC(=O)c2oc3ccc(S(=O)(=O)N4CCOCC4)cc3c2C)cc1	> 79 µM (inactive)

Biological target: T4, Protein RecA (Mycobacterium tuberculosis, UniProt P9WHJ3)
T4 sequence (P9WHJ3 whole entry): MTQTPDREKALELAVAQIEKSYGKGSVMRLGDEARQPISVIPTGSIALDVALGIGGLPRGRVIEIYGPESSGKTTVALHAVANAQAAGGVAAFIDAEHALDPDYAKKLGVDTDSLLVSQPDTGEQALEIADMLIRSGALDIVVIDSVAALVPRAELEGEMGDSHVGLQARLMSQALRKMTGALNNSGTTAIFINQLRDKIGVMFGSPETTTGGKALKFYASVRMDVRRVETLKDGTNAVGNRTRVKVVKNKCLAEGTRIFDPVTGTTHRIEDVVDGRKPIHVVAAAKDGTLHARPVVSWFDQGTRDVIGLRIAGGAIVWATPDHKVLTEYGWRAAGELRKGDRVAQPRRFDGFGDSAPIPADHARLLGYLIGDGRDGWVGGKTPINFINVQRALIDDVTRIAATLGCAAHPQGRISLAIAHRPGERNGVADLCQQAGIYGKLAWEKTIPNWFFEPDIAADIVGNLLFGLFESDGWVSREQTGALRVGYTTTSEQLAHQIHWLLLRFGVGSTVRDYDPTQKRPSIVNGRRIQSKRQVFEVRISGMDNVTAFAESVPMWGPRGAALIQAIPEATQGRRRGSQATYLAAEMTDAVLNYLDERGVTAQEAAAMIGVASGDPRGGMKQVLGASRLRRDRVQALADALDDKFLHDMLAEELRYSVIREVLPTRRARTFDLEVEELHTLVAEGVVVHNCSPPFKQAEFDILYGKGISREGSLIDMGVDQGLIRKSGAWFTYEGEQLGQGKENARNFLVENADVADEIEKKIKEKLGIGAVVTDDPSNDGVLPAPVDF
Experiment: Fluorescence Cell-Free Homogeneous Dose Retest to Identify Inhibitors of RecA-Intein Splicing Activity. [Related pubchem assays (depositor defined):AID2097, AID2223, AID489010, AID492950]
Type: functional
Conditions: not given

SMILES	EC50
O=C(NCc1ccco1)/C(=C/c1cccc(C(F)(F)F)c1)c1nc2ccccc2[nH]1	54.4 µM (active)
